Here are results for 15 compounds from patent publication US12600709B2, “Nonpeptide somatostatin type 5 receptor agonists and uses thereof” (Crinetics Pharmaceuticals, Inc., priority 2019, dated 2026).

Read-outs that look alike come from different tables or passages of the source.

The target of assay [1] is T1, human somatostatin receptor subtype 5 (Homo sapiens, UniProt P35346).
T1 construct: expressed in transfected cells
Nature of the assay: cAMP assay for SST5R (inhibition of cAMP in CHO-K1 cells). Format: cell-based. To be noted: for EC50: inhibition of cAMP via human SST5 receptor, read-out: SST5 potency; for Fold selectivity for SST5 vs SST2: class symbols, SST5 receptor over SST2 receptor. Put shortly: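 CHO-K1 cells stably expressing human SSTR5 were treated 20 min at 37 °C with compounds plus 1.6 μM NKH477 in HBSS, 0.5 mM HEPES pH 7.4, 0.1% BSA, 0.2 mM IBMX. Lysate cAMP measured by HTRF against a standard curve; EC50 from cAMP-versus-concentration plots.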

The target in assay [2] is T2, human somatostatin receptor subtype 2 (Homo sapiens, UniProt P30874).
T2 construct: expressed in transfected cells
Nature of the assay: cAMP assay for SST2R (inhibition of cAMP in CHO-K1 cells). Format: cell-based. Conditions: Table B; inhibition of cAMP via human SST2 receptor; read-out: SST2 potency. Put shortly:
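CHO-K1 cells stably expressing human SSTR2, plated 4 days prior, treated 20 min at 37° C with 1.6 μM NKH477 plus compound dilutions in HBSS/HEPES pH 7.4/0.1% BSA/0.2 mM IBMX. Lysate cAMP measured by HTRF against standard curve; EC50 from concentration-response.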

T2 sequence (P30874 whole entry): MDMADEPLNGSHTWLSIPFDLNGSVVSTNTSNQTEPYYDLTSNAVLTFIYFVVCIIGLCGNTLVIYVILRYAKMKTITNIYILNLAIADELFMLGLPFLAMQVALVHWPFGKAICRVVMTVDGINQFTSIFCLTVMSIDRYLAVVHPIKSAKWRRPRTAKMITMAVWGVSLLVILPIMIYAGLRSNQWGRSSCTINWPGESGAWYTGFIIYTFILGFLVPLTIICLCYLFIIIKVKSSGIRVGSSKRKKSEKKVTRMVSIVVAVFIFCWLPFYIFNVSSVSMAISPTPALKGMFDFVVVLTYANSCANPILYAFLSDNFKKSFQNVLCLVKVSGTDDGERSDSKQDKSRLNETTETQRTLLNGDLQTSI
T1 sequence (P35346 whole entry): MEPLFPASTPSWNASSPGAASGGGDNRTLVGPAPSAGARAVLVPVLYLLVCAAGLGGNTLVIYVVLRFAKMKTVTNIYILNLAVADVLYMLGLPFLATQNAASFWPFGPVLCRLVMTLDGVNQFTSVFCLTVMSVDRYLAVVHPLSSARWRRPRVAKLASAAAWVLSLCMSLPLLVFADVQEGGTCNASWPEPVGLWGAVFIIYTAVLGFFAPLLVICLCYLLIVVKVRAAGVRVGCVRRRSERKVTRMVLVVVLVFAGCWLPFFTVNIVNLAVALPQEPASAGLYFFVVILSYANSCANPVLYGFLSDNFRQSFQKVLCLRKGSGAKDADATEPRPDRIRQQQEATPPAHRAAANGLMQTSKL

As to `COc1ncc(C(=O)NC2CC(F)(F)C2)c(N2CC[C@H](N)C2)c1-c1cc(F)cc(Cl)c1` [1-285, 4-[(3S)-3-aminopyrrolidin-1-yl]-5-(3-chloro-5-fluorophenyl)-N-(3,3-difluorocyclobutyl)-6-methoxypyridine-3-carboxamide], the EC50 in assay [1] (Table A) was less than 0.01 µM; in assay [1] (Table B) it was less than 0.01 µM; in assay [2], 0.1 to 1 µM. Further, the “Fold selectivity for SST5 vs SST2” value in assay [1] (Table B) is reported as “+++ (+++=>500)”.

For `COc1ncc(C(=O)NC23CC(F)(C2)C3)c(N2CC[C@H](N)C2)c1-c1cc(F)cc(Cl)c1` [1-286, 4-[(3S)-3-aminopyrrolidin-1-yl]-5-(3-chloro-5-fluorophenyl)-N-{3-fluorobicyclo[1.1.1]pentan-1-yl}-6-methoxypyridine-3-carboxamide], the EC50 in assay [1] (Table A) was less than 0.01 µM; in assay [1] (Table B) it was less than 0.01 µM; in assay [2], 0.1 to 1 µM. The “Fold selectivity for SST5 vs SST2” value in assay [1] (Table B) is reported as “+++ (+++=>500)”.

Regarding `Cc1ncc(C(=O)N[C@@H](C)C(F)(F)F)c(N2CC[C@](C)(N)C2)c1-c1ccc(F)c(Cl)c1` [1-287, 4-[(3S)-3-amino-3-methylpyrrolidin-1-yl]-5-(3-chloro-4-fluorophenyl)-6-methyl-N-[(2S)-1,1,1-trifluoropropan-2-yl]pyridine-3-carboxamide], the EC50 is less than 0.01 µM in assay [1] (Table A), less than 0.01 µM in assay [1] (Table B) and 0.01 to 0.1 µM in assay [2]. Also, the “Fold selectivity for SST5 vs SST2” value in assay [1] (Table B) is on record as “+++ (+++=>500)”.

In the case of `Cc1ncc(C(=O)N[C@@H](C)C2CC2)c(N2CC[C@](C)(N)C2)c1-c1ccc(F)c(F)c1` [1-288, 4-[(3S)-3-amino-3-methylpyrrolidin-1-yl]-N-[(1S)-1-cyclopropylethyl]-5-(3,4-difluorophenyl)-6-methylpyridine-3-carboxamide], the EC50 in assay [1] (Table A) was less than 0.01 µM; in assay [1] (Table B), less than 0.01 µM; in assay [2], 0.1 to 1 µM. Further, the “Fold selectivity for SST5 vs SST2” value in assay [1] (Table B) is recorded as “+++ (+++=>500)”.

On to `Cc1ncc(C(=O)N[C@@H](C)C2CC2)c(N2CC[C@](C)(N)C2)c1-c1ccc(F)c(Cl)c1` [1-289, 4-[(3S)-3-amino-3-methylpyrrolidin-1-yl]-5-(3-chloro-4-fluorophenyl)-N-[(1S)-1-cyclopropylethyl]-6-methylpyridine-3-carboxamide], for which the figures for the EC50 in assay [1] (Table A), in assay [1] (Table B) and in assay [2] were less than 0.01 µM, less than 0.01 µM and 0.1 to 1 µM, respectively. The “Fold selectivity for SST5 vs SST2” value in assay [1] (Table B) is recorded as “+++ (+++=>500)”.

In the case of `Cc1cccc2[nH]c(-c3cncc(C(=O)NCC(F)(F)F)c3N3CC[C@](C)(N)C3)nc12` [2-7, 4-[(3S)-3-amino-3-methylpyrrolidin-1-yl]-5-(4-methyl-1H-1,3-benzodiazol-2-yl)-N-(2,2,2-trifluoroethyl)pyridine-3-carboxamide], the EC50 in assay [1] (Table A) is less than 0.01 µM; in assay [1] (Table B), less than 0.01 µM; in assay [2], 0.1 to 1 µM. Also, the “Fold selectivity for SST5 vs SST2” value in assay [1] (Table B) was “++ (++=100 to 499)”.

Regarding `Cc1cccc2[nH]c(-c3cncc(C(=O)N[C@@H](C)C(F)(F)F)c3N3CC[C@](C)(N)C3)nc12` [2-11, 4-[(3S)-3-amino-3-methylpyrrolidin-1-yl]-5-(4-methyl-1H-1,3-benzodiazol-2-yl)-N-[(2S)-1,1,1-trifluoropropan-2-yl]pyridine-3-carboxamide], the EC50 in assay [1] (Table A) was less than 0.01 µM; in assay [1] (Table B), less than 0.01 µM; in assay [2], 0.01 to 0.1 µM. The “Fold selectivity for SST5 vs SST2” value in assay [1] (Table B) is “+ (+=10 to 99)”.

Take `Cc1cccc2[nH]c(-c3cncc(C(=O)NC45CC(C4)C5)c3N3CC[C@](C)(N)C3)nc12` [2-15, 4-[(3S)-3-amino-3-methylpyrrolidin-1-yl]-N-{bicyclo[1,1,1]pentan-1-yl}-5-(4-methyl-1H-1,3-benzodiazol-2-yl)pyridine-3-carboxamide]: the EC50 was less than 0.01 µM in assay [1] (Table A), less than 0.01 µM in assay [1] (Table B) and 0.1 to 1 µM in assay [2]. Further, the “Fold selectivity for SST5 vs SST2” value in assay [1] (Table B) is “++ (++=100 to 499)”.

As to `Cc1cccc2[nH]c(-c3cncc(C(=O)N4C5CC6CC(C5)CC4C6)c3N3CC[C@](C)(N)C3)nc12` [2-26, (3S)-1-(3-{2-azatricyclo[3.3.1.1^3,7]decane-2-carbonyl}-5-(4-methyl-1H-1,3-benzodiazol-2-yl)pyridin-4-yl)-3-methylpyrrolidin-3-amine], the EC50 in assay [1] (Table A) is less than 0.01 µM; in assay [1] (Table B), less than 0.01 µM; in assay [2] it was 0.1 to 1 µM. The “Fold selectivity for SST5 vs SST2” value in assay [1] (Table B) is on record as “+++ (+++=>500)”.

For `Cc1cccc2[nH]c(-c3cncc(C(=O)N(C)[C@@H](C)C4CC4)c3N3CC[C@](C)(N)C3)nc12` [2-29, 4-[(3S)-3-amino-3-methylpyrrolidin-1-yl]-N-[(1S)-1-cyclopropylethyl]-N-methyl-5-(4-methyl-1H-1,3-benzodiazol-2-yl)pyridine-3-carboxamide], the EC50 in assay [1] (Table A) was less than 0.01 µM; in assay [1] (Table B), less than 0.01 µM; in assay [2], 0.01 to 0.1 µM. Besides, in assay [1] (Table B), the “Fold selectivity for SST5 vs SST2” value is “+ (+=10 to 99)”.

For `Cc1ccc(F)c2[nH]c(-c3cncc(C(=O)N[C@@H](C)C(F)(F)F)c3N3CC[C@](C)(N)C3)nc12` [2-30, 4-[(3S)-3-amino-3-methylpyrrolidin-1-yl]-5-(7-fluoro-4-methyl-1H-1,3-benzodiazol-2-yl)-N-[(2S)-1,1,1-trifluoropropan-2-yl]pyridine-3-carboxamide], the EC50 in assay [1] (Table A) was less than 0.01 µM; in assay [1] (Table B), less than 0.01 µM; in assay [2], 0.01 to 0.1 µM. Besides, the “Fold selectivity for SST5 vs SST2” value in assay [1] (Table B) is listed as “+ (+=10 to 99)”.

With `Cc1cccc2[nH]c(-c3cncc(C(=O)N4CC5CCC4CC5)c3N3CC[C@](C)(N)C3)nc12` [2-35, (3S)-1-(3-{2-azabicyclo[2.2.2]octane-2-carbonyl}-5-(4-methyl-1H-1,3-benzodiazol-2-yl)pyridin-4-yl)-3-methylpyrrolidin-3-amine], the EC50 in assay [1] (Table A) was less than 0.01 µM; in assay [1] (Table B), less than 0.01 µM; in assay [2] it was 0.1 to 1 µM. In assay [1] (Table B), the “Fold selectivity for SST5 vs SST2” value was “++ (++=100 to 499)”.

`Cc1cccc2[nH]c(-c3cncc(C(=O)N4CCCC4C(C)C)c3N3CC[C@](C)(N)C3)nc12` (stereo partly drawn) [2-36, (3S)-3-methyl-1-[3-(4-methyl-1H-1,3-benzodiazol-2-yl)-5-[2-(propan-2-yl)pyrrolidine-1-carbonyl]pyridin-4-yl]pyrrolidin-3-amine]: the results for the EC50 in assay [1] (Table A), in assay [1] (Table B) and in assay [2] were less than 0.01 µM, less than 0.01 µM and 0.1 to 1 µM, respectively. Moreover, in assay [1] (Table B), the “Fold selectivity for SST5 vs SST2” value is listed as “+++ (+++=>500)”.

Turning to `Cc1cccc2[nH]c(-c3cncc(C(=O)N4CC[C@H]5CCCC54)c3N3CC[C@](C)(N)C3)nc12` (stereo partly drawn) [2-37, (3S)-1-{3-[(3aR)-octahydrocyclopenta[b]pyrrole-1-carbonyl]-5-(4-methyl-1H-1,3-benzodiazol-2-yl)pyridin-4-yl}-3-methylpyrrolidin-3-amine], the results for the EC50 in assay [1] (Table A), in assay [1] (Table B) and in assay [2] were less than 0.01 µM, less than 0.01 µM and 0.1 to 1 µM, respectively. The “Fold selectivity for SST5 vs SST2” value in assay [1] (Table B) was “++ (++=100 to 499)”.

Regarding `Cc1cccc2[nH]c(-c3cncc(C(=O)NC4CCCCC4)c3N3CC[C@](C)(N)C3)nc12` [2-38, 4-[(3S)-3-amino-3-methylpyrrolidin-1-yl]-N-cyclohexyl-5-(4-methyl-1H-1,3-benzodiazol-2-yl)pyridine-3-carboxamide], the EC50 in assay [1] (Table A) was less than 0.01 µM; in assay [1] (Table B), less than 0.01 µM; in assay [2], 0.1 to 1 µM. In assay [1] (Table B), the “Fold selectivity for SST5 vs SST2” value is “+ (+=10 to 99)”.
